Target: Hsp82 (Saccharomyces cerevisiae, UniProt P02829)
Experiment: Hsp82 ATPase activity, pyruvate kinase/lactate dehydrogenase enzymatic coupling method (NADH absorbance at 340 nm)
Format: biochemical
Details: 1 μM Hsp82, 250 μM ATP, 37° C., PK/LDH coupled, initial rate
Text: The formation of ADP due to the ATPase activity of Hsp82 was used to develop another method for evaluating the enzymatic activity of this enzyme by application of an enzymatic coupling system involving pyruvate kinase (PK) and lactate dehydrogenase (LDH). In this kinetic-type spectrophotometric method, PK catalyses the formation of ATP and of pyruvate from phosphoenol pyruvate (PEP) and the ADP produced by Hsp82. The pyruvate formed, which is a substrate for LDH, is subsequently converted to lactate in the presence of NADH. In this case, the decrease in NADH concentration, measured through the decrease in absorbance at the wavelength of 340 nm, is proportional to the concentration of ADP produced by Hsp82.
The products tested are incubated in a reaction volume of 100 μl of buffer composed of 100 mM Hepes-NaOH (pH 7.5), 5 mM MgCl2, 1 mM DTT, 150 mM KCl, 0.3 mM NADH, 2.5 mM PEP and 250 μM ATP. This mixture is preincubated at 37° C. for 30 minutes before the addition of 3.77 units of LDH and 3.77 units of PK. The reaction is initiated by addition of the product to be evaluated, in varying concentrations, and of Hsp82, at the concentration of 1 μM. The enzymatic activity of Hsp82 is then measured continuously, in a microplate reader, at 37° C., at the wavelength of 340 nm. The initial rate of the reaction is obtained by measuring the slope of the tangent to the origin of the curve recorded. The enzymatic activity is expressed in μM of ADP formed per minute. The effect of the various products tested is expressed as capacity for inhibiting the ATPase activity according to the codification below: […]

Sequence of Hsp82 (P02829 whole entry): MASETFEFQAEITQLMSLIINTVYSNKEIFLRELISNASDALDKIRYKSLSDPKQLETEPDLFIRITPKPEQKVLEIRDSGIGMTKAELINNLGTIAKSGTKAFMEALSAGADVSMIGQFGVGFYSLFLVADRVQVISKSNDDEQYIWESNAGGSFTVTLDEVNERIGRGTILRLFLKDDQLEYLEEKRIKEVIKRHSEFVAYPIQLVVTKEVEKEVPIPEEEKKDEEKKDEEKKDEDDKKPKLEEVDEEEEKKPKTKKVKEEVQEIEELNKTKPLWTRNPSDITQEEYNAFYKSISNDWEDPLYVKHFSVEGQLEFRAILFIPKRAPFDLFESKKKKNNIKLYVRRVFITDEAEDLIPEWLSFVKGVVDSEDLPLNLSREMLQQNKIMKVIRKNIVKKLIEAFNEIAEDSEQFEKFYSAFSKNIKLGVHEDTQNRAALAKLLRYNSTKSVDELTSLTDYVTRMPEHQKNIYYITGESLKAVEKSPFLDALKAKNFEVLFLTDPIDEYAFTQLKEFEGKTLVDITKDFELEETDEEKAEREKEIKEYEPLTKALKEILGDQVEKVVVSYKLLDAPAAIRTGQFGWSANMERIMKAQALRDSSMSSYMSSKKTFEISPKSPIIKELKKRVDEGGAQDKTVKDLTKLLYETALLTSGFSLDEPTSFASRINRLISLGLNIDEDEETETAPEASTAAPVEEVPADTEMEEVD

IC50 [nM]	Structure (SMILES)
1000 to 10000	O=C(NC1c2cccc(-c3cnc4ccccc4c3)c2-n2cccc21)c1ccnc2[nH]ccc12 (stereo not shown) [Example 2, 1H-pyrrolo[2,3-b]pyridine-4-carboxylic acid (5-quinolin-3-yl-9H-pyrrolo[1,2-a]indol-9-yl)amide]
1000 to 10000	O=C(NC1c2cccc(-c3nc4ccncc4[nH]3)c2-n2cccc21)c1cc(Cl)nc2[nH]ccc12 (stereo not shown) [Example 4, 6-chloro-1H-pyrrolo[2,3-b]pyridine-4-carboxylic acid [5-(3H-imidazo[4,5-c]pyridin-2-yl)-9H-pyrrolo[1,2-a]indol-9-yl]amide]
< 1000	O=C(NC1c2cccc(-c3nc4ccncc4[nH]3)c2-n2cccc21)c1ccnc2[nH]ccc12 (stereo not shown) [Example 3, 1H-pyrrolo[2,3-b]pyridine-4-carboxylic acid [5-(3H-imidazo[4,5-c]pyridin-2-yl)-9H-pyrrolo[1,2-a]indol-9-yl]amide]
< 1000	O=C(NC1c2cccc(-c3nc4ccc(F)cc4[nH]3)c2-n2cccc21)c1ccnc2[nH]ccc12 (stereo not shown) [Example 1, 1H-pyrrolo[2,3-b]pyridine-4-carboxylic acid [5-(6-fluoro-1H-benzimidazol-2-yl)-9H-pyrrolo[1,2-a]indol-9-yl]amide]

Source: patent publication US8178687B2, “Derivatives of pyrroloindole which are inhibitors of Hsp90, compositions containing same, and use thereof” (Sanofi-Aventis, priority 2009, dated 2012)
